Some results are limits rather than exact numbers.

Test [1] has as its target T1, Mitogen-activated protein kinase 14 (Homo sapiens, UniProt Q16539). Put plainly: Displacement of […] form p38alpha after 30 mins by luminescence assay.
The target of test [2] is T2, Aurora kinase A (Homo sapiens, UniProt O14965).
T2 sequence (O14965 whole entry): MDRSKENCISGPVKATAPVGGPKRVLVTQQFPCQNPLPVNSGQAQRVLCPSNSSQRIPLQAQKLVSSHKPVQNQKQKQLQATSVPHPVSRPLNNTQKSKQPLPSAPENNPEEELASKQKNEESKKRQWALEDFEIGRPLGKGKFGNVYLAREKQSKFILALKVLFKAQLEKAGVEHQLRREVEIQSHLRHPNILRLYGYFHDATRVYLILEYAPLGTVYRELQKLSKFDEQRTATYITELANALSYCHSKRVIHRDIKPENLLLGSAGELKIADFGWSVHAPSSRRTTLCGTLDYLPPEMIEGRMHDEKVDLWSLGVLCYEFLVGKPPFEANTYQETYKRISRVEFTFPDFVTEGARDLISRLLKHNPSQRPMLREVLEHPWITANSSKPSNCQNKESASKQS
Description: Inhibition of Aurora A ATP-binding site assessed as inhibition of [gamma-33P]ATP incorporation into substrate by scintillation counting.

Test [3] concerns the target T1, Mitogen-activated protein kinase 14. Put plainly: Inhibition of p38alpha assessed as inhibition of [gamma-33P]ATP incorporation into substrate after 4 hrs by radiometric assay.
Test [4] deals with T2, Aurora kinase A. Put plainly: Inhibition of Aurora A ATP-binding site.

T1 sequence (Q16539 whole entry): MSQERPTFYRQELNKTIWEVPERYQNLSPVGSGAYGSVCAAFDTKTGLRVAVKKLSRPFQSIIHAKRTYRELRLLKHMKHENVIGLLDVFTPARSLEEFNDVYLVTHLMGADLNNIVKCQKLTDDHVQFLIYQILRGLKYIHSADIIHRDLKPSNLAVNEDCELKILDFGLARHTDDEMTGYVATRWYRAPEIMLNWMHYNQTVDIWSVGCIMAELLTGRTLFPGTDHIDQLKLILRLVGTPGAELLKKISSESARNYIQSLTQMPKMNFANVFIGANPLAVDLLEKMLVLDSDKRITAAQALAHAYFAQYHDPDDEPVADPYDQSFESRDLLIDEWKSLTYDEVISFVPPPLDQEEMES

By EC50 is commonly meant the concentration that produces a half-maximal response. Low values mean an effect from little substance, high ones a need for much substance. Regarding `CNC(=O)[C@H](Cc1ccc2c(c1)COC(C)(C)O2)Nc1nc(-n2cnc3ccc(C(=O)N4CCCc5ccccc54)cc32)nc(=O)[nH]1`, in test [1], the EC50 was ≤ 7 nM. The same measure, in the same setting: then `CCOc1nc(N[C@@H](Cc2ccc3c(c2)COC(C)(C)O3)C(=O)NC)nc(-n2cnc3ccc(C(=O)N4CCCc5ccccc54)cc32)n1`, with ≤ 8 nM; and `CNC(=O)[C@H](Cc1ccc2c(c1)COC(C)(C)O2)Nc1nc(O)nc(-n2cnc3cc(C(=O)N4CCCc5ccccc54)ccc32)n1`, with 5200 nM. As a reminder, the IC50 is the concentration needed to halve the response being measured. Turning to `CCCCN(C)c1nc(NCCc2ccccc2OC)nc(NC(Cc2c[nH]c3ncccc23)C(N)=O)n1` (stereo not drawn), the IC50 on Aurora kinase A [2] came to 3.8 nM. Same read-out and setting: the result for `COc1ccccc1CCNc1nc(NC(Cc2c[nH]c3ncccc23)C(N)=O)nc(N(C)[C@@H](C)c2ccccc2)n1` (stereo partly drawn) reads 6.3 nM. On to `COc1ccccc1CCNc1nc(Nc2ccc3ncccc3c2)nc(NC(Cc2c[nH]c3ncccc23)C(N)=O)n1` (stereo not drawn), for which the IC50 on Aurora kinase A [2] came to 3.7 nM. With `CONC(=O)c1ccc(C)c(Nc2nc(NCc3cccc(C)c3)nc(NC(C)C(C)(C)C)n2)c1` (stereo not drawn), in test [3], the half-maximal inhibitory concentration (IC50) was found to be 15 nM.

`CCCCN(C)c1nc(NCCc2ccccc2OC)nc(NCCc2c[nH]c3ncccc23)n1`: the IC50 at Aurora kinase A [2] turned out to be 1.2 nM.

On to `CONC(=O)c1ccc(C)c(Nc2nc(NCC3CCCC(CN)C3)nc(NC(C)C(C)(C)C)n2)c1` (stereo not drawn), for which the IC50 in test [3] is ≤ 2 nM. As to `CNc1nc(NCCc2ccccc2OC)nc(Nc2ccc3ncccc3c2)n1`, the IC50 at Aurora kinase A [2] worked out at 5.1 nM. As usually defined, the Ki is the dissociation constant of the complex between target and ligand, obtained from inhibition or displacement. A lower Ki goes with tighter binding. The molecule `Cc1cc(Nc2cc(N3CCN(CC(=O)O)CC3)nc(Sc3ccc(NC(=O)C4CC4)cc3)n2)n[nH]1` came in with a Ki at Aurora kinase A [4] of 20 nM.

As to `CONC(=O)c1ccc(C)c(Nc2nc(NCC3CCCC(CN)C3)nc(NC3CCCCC3)n2)c1` (stereo not drawn), in test [3], the IC50 was ≤ 2 nM. As to `CCOc1nc(N[C@@H](Cc2ccc3c(c2)COC(C)(C)O3)C(=O)NC)nc(-n2cnc3cc(C(=O)N4CCCc5ccccc54)ccc32)n1`, a half-maximal effect in test [1] (EC50) was put at 2700 nM.

These data come from ChEMBL document CHEMBL1212727, “Design, synthesis and selection of DNA-encoded small-molecule libraries” (Nat Chem Biol, 2009).
